Experimental data reported in article PMC3382598, “Functional Metagenomics Unveils a Multifunctional Glycosyl Hydrolase from the Family 43 Catalysing the Breakdown of Plant Polymers in the Calf Rumen” (PLoS ONE, 2012).

tested on: T1, R_09-02; assay: p-nitrophenol release at […] nm; Michaelis-Menten fit; assay type: biochemical; settings: pH 6.0 (20 mM sodium acetate), 34°C; read-out: K m (mM)^1
T1 construct: recombinant in E. coli, His6-tag purification; tetramer approx. 200 kDa; second CDS of 3264 bp r_09 insert; W82, H301, R327 conserved residues; N-terminal GH43 domain plus C-terminal beta-sandwich (CBM6-like)

| Structure (SMILES) | Km [mM] |
| --- | --- |
| O=[N+]([O-])c1ccc(O[C@@H]2OC[C@H](O)[C@H](O)[C@H]2O)cc1 [pNPαAp] | 6.98 ± 0.79 |
| O=[N+]([O-])c1ccc(O[C@H]2O[C@H](CO)[C@@H](O[C@H]3O[C@H](CO)[C@@H](O)[C@H](O)[C@H]3O)[C@H](O)[C@H]2O)cc1 [pNPαMal] | 9.74 ± 0.41 |
| O=[N+]([O-])c1ccc(O[C@@H]2OC[C@@H](O)[C@H](O)[C@H]2O)cc1 [pNPβX] | 4.4 ± 0.76 |
| O=[N+]([O-])c1ccc(O[C@@H]2O[C@@H](CO)[C@H](O)[C@H]2O)cc1 [pNPαAf] | 0.57 ± 0.15 |
| O=[N+]([O-])c1ccc(O[C@H]2O[C@H](CO)[C@@H](O)[C@H](O)[C@H]2O)cc1 [pNPαG] | 4.84 ± 1.27 |
| O=[N+]([O-])c1ccc(O[C@@H]2O[C@H](CO)[C@H](O)[C@H](O)[C@H]2O)cc1 [pNPβGal] | 0.37 ± 0.12 |

tested on: T1, R_09-02; assay: released xylose, D-xylose assay kit; Michaelis-Menten fit; assay type: biochemical; settings: pH 6.0 (20 mM sodium acetate), 34°C; read-out: K m (mM)^1
From the text: released xylose, D-xylose assay kit; Michaelis-Menten fit on R_09-02

| Structure (SMILES) | Km [mM] |
| --- | --- |
| OC1OC[C@@H](O[C@@H]2OC[C@@H](O[C@@H]3OC[C@@H](O)[C@H](O)[C@H]3O)[C@H](O)[C@H]2O)[C@H](O)[C@H]1O (stereo partly drawn) [1,4-β-Xylotriose] | 0.29 ± 0.02 |
| OC1OC[C@@H](O[C@@H]2OC[C@@H](O[C@@H]3OC[C@@H](O[C@@H]4OC[C@@H](O)[C@H](O)[C@H]4O)[C@H](O)[C@H]3O)[C@H](O)[C@H]2O)[C@H](O)[C@H]1O (stereo partly drawn) [1,4-β-Xylotetraose] | 0.33 ± 0.07 |
| OC1[C@H](O)CO[C@@H](O[C@@H]2CO[C@@H](O[C@@H]3CO[C@@H](O[C@@H]4CO[C@@H](O[C@@H]5COC(O)[C@H](O)[C@H]5O)[C@H](O)C4O)[C@H](O)C3O)[C@H](O)C2O)[C@@H]1O (stereo partly drawn) [1,4-β-Xylopentaose] | 1.58 ± 0.19 |
| OC1OC[C@@H](O[C@@H]2OC[C@@H](O)[C@H](O)[C@H]2O)[C@H](O)[C@H]1O (stereo partly drawn) [1,4-β-Xylobiose] | 0.012 ± 0.002 |

tested on: T1, R_09-02; assay: released glucose, glucose oxidase kit; Michaelis-Menten fit; assay type: biochemical; settings: pH 6.0 (20 mM sodium acetate), 34°C; read-out: K m (mM)^1
From the text: released glucose, glucose oxidase kit; Michaelis-Menten fit on R_09-02

| Structure (SMILES) | Km [mM] |
| --- | --- |
| OC[C@H]1O[C@H](O[C@H]2[C@H](O)[C@@H](O)[C@@H](O[C@H]3[C@H](O)[C@@H](O)[C@@H](O[C@H]4[C@H](O)[C@@H](O)[C@@H](O[C@H]5[C@H](O)[C@@H](O)C(O)O[C@@H]5CO)O[C@@H]4CO)O[C@@H]3CO)O[C@@H]2CO)[C@H](O)[C@@H](O)[C@@H]1O (some centres unmarked) [Maltopentaose] | 1.64 ± 0.21 |
| OC[C@H]1O[C@H](O[C@H]2[C@H](O)[C@@H](O)[C@@H](O[C@H]3[C@H](O)[C@@H](O)C(O)O[C@@H]3CO)O[C@@H]2CO)[C@H](O)[C@@H](O)[C@@H]1O (some centres unmarked) [Maltotriose] | 0.44 ± 0.13 |
| OC[C@H]1O[C@@H](O[C@H]2[C@H](O)[C@@H](O)C(O)O[C@@H]2CO)[C@H](O)[C@@H](O)[C@H]1O (some centres unmarked) [Lactose] | 0.05 ± 0.0039 |
| OC[C@H]1O[C@H](O[C@H]2[C@H](O)[C@@H](O)C(O)O[C@@H]2CO)[C@H](O)[C@@H](O)[C@@H]1O (some centres unmarked) [Maltose] | 2.57 ± 0.19 |
| OC[C@H]1O[C@H](O[C@H]2[C@H](O)[C@@H](O)[C@@H](O[C@H]3[C@H](O)[C@@H](O)[C@@H](O[C@H]4[C@H](O)[C@@H](O)C(O)O[C@@H]4CO)O[C@@H]3CO)O[C@@H]2CO)[C@H](O)[C@@H](O)[C@@H]1O (some centres unmarked) [Maltotetraose] | 0.53 ± 0.17 |

tested on: T1, R_09-02; assay: oligosaccharide hydrolysis, released sugar assay; Michaelis-Menten fit; assay type: biochemical; settings: pH 6.0 (20 mM sodium acetate), 34°C; read-out: K m (mM)^1
From the text: oligosaccharide hydrolysis, released sugar assay; Michaelis-Menten fit on R_09-02

| Structure (SMILES) | Km [mM] |
| --- | --- |
| OC[C@H]1O[C@H](OC[C@H]2O[C@H](O[C@]3(CO)O[C@H](CO)[C@@H](O)[C@@H]3O)[C@H](O)[C@@H](O)[C@@H]2O)[C@H](O)[C@@H](O)[C@H]1O [Raffinose] | 0.035 ± 0.004 |
| OC[C@H]1O[C@H](OC[C@H]2O[C@H](OC[C@H]3O[C@H](O[C@]4(CO)O[C@H](CO)[C@@H](O)[C@@H]4O)[C@H](O)[C@@H](O)[C@@H]3O)[C@H](O)[C@@H](O)[C@H]2O)[C@H](O)[C@@H](O)[C@H]1O [Stachyose] | 1.43 ± 0.84 |

tested on: T1, R_09-02; assay: released arabinose, lactose/galactose (Rapid) assay kit; Michaelis-Menten fit; assay type: biochemical; settings: pH 6.0 (20 mM sodium acetate), 34°C; read-out: K m (mM)^1
From the text: released arabinose, lactose/galactose (Rapid) assay kit; Michaelis-Menten fit on R_09-02

| Structure (SMILES) | Km [mM] |
| --- | --- |
| OC[C@@H]1O[C@@H](OC[C@@H]2OC(O)[C@H](O)[C@H]2O)[C@H](O)[C@H]1O (stereo partly drawn) [1,5-α-L-Arabinobiose] | 0.027 ± 0.01 |
| OC[C@@H]1O[C@@H](OC[C@@H]2O[C@@H](OC[C@@H]3OC(O)[C@H](O)[C@H]3O)[C@H](O)[C@H]2O)[C@H](O)[C@H]1O (stereo partly drawn) [1,5-α-L-Arabinotriose] | 0.1 ± 0.05 |
| OC[C@@H]1O[C@@H](OC[C@@H]2O[C@@H](OC[C@@H]3O[C@@H](OC[C@@H]4OC(O)[C@H](O)[C@H]4O)[C@H](O)[C@H]3O)[C@H](O)[C@H]2O)[C@H](O)[C@H]1O (stereo partly drawn) [1,5-α-L-Arabinotetraose] | 4.23 ± 0.74 |
